Source: patent US9975903B2, “Condensed heterocyclic compound” (Takeda Pharmaceutical Company Limited, priority 2014, dated 2018)
Counter-ions that a name gives are not always drawn.

Target: T1, Human recombinant enteropeptidase (Homo sapiens, UniProt P98073)
T1 construct: purchased ITSI-Biosciences LLC #REN-260
Experiment: Human enteropeptidase inhibitory activity (Test Example 1)
Type: biochemical
Conditions: 3.3 μM test compound; inhibition rate from fluorescence intensity at 2 hours after the start of the reaction; read-out: 3.3 μM Inhibition
How it was run: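 Recombinant human enteropeptidase in 50 mM Tricine pH 8.0, 0.01% Tween 20, 10 mM CaCl2, with a 5FAM/CPQ2-quenched peptide substrate (2.1 μM solution before mixing). Compound came from 1 mM DMSO stock diluted 100-fold in buffer. Fluorescence (ex 485/em 535 nm) at 2 h gave % inhibition versus no-compound and no-enzyme controls.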

T1 sequence (P98073 whole entry): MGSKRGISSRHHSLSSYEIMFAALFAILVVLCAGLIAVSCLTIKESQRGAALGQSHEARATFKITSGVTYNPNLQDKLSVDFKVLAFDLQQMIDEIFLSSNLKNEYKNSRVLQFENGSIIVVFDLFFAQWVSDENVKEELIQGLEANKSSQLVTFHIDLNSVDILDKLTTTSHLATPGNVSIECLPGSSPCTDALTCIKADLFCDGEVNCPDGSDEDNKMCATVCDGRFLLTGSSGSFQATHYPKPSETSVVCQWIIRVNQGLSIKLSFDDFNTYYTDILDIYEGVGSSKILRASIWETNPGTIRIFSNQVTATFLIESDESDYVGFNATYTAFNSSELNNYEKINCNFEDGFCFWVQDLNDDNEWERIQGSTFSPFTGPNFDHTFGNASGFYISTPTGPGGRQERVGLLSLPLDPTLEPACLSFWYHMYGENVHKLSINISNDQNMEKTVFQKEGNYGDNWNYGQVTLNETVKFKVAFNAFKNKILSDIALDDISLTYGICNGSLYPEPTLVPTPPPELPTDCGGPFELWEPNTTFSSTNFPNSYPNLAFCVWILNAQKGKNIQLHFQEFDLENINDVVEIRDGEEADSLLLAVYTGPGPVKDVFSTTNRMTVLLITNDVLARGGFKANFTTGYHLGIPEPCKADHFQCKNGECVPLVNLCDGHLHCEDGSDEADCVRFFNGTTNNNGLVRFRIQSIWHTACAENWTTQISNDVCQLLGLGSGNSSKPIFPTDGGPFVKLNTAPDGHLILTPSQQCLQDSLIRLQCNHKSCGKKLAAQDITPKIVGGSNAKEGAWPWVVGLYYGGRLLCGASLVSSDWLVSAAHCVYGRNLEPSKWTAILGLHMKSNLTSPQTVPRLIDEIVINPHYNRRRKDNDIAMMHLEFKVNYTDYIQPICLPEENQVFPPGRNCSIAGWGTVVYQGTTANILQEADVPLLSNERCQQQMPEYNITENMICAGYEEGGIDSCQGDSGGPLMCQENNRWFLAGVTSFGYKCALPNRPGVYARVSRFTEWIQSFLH

| SMILES | inhibition at 3.3 µM [%] |
| --- | --- |
| N=C(N)Nc1ccc2c(c1)CCCOc1cc(CCC(=O)N[C@@H](CC(=O)O)C(=O)O)ccc1OC2=O [Example 49, N-(3-(10-carbamimidamido-13-oxo-6,7,8,13-tetrahydro-dibenzo[b,f] [1,4]dioxecin-3-yl)propanoyl)-aspartic acid] | 100 |
| CN(C(=O)c1cccc2c1OCCCc1cc(NC(=N)N)ccc1C(=O)O2)[C@@H](CC(=O)O)C(=O)O [Example 85, N-((10-carbamimidamido-13-oxo-6,7,8,13-tetrahydrodibenzo[b,f] [1,4]dioxecin-4-yl)carbonyl)-N-methyl-L-aspartic acid] | 101 |
| N=C(N)Nc1ccc2c(c1)CCOc1c(cccc1C(=O)N[C@@H](CC(=O)O)C(=O)O)OC2=O [Example 13, N-((9-Carbamimidamido-6-oxo-11,12-dihydro-6H-dibenzo[b,f][1,4]dioxonin-1-yl)carbonyl)-L-aspartic acid trifluoroacetate] | 101 |
| N=C(N)Nc1ccc2c(c1)CCCCc1c(CCC(=O)N[C@@H](CC(=O)O)C(=O)O)ccc(F)c1OC2=O [Example 41, N-(3-(3-carbamimidamido-12-fluoro-14-oxo-5,7,8,14-tetrahydro-6H-dibenzo[b,h]oxacin-9-yl)propanoyl)-L-aspartic acid] | 71 |
| N=C(N)Nc1ccc2c(c1)CCCOc1c(cccc1C(=O)N[C@@H](CCC(=O)O)C(=O)O)OC2=O [Example 18, N-((10-Carbamimidamido-13-oxo-6,7,8,13-tetrahydrodibenzo[b,f][1,4]dioxecin-4-yl)carbonyl)-L-glutamic acid] | 101 |
| N=C(N)Nc1ccc2c(c1)CCCOc1c(cccc1C(=O)NCC(=O)N[C@@H](CC(=O)O)C(=O)O)OC2=O [Example 100, N-((10-carbamimidamido-13-oxo-6,7,8,13-tetrahydro-dibenzo[b,f] [1,4]dioxecin-4-yl)carbonyl)glycyl-L-aspartic acid] | 101 |
| N=C(N)Nc1ccc2c(c1)CCCOc1c(cccc1C(=O)N(Cc1cccc(C(=O)O)c1)C(CC(=O)O)CC(=O)O)OC2=O [Example 144, 3-(((10-Carbamimidamido-13-oxo-6,7,8,13-tetrahydrodibenzo[b,f][1,4]dioxecin-4-yl)carbonyl) (3-carboxybenzyl)amino)pentanedioic acid] | 99 |
| N=C(N)Nc1ccc2c(c1)CCCOc1c(CCC(=O)N[C@@H](Cc3ccc(O)cc3)C(=O)O)cccc1OC2=O [Example 95, N-(3-(10-carbamimidamido-13-oxo-6,7,8,13-tetrahydro-dibenzo[b,f] [1,4]dioxecin-4-yl)propanoyl)-L-tyrosine] | 101 |
| COC(=O)[C@H](CS(=O)(=O)O)NC(=O)c1cccc2c1OCCCc1cc(NC(=N)N)ccc1C(=O)O2 [Example 7, 10-carbamimidamido-4-(((2R)-1-methoxy-1-oxo-3-sulfopropan-2-yl)carbamoyl)-13-oxo-6,7,8,13-tetrahydro-dibenzo[b,f] [1,4]dioxecine] | 102 |
| C[C@@H](O)[C@H](NC(=O)c1cccc2c1OCCCc1cc(NC(=N)N)ccc1C(=O)O2)C(=O)O [Example 90, N-((10-carbamimidamido-13-oxo-6,7,8,13-tetrahydro-dibenzo[b,f] [1,4]dioxecin-4-yl)carbonyl)-L-threonine] | 101 |
| N=C(N)Nc1ccc2c(c1)CCCOc1c(ccc(CCC(=O)O)c1C(=O)N(CCN(CC(=O)O)CC(=O)O)CC(=O)O)OC2=O [Example 149] | 101 |
| N=C(N)Nc1ccc2c(c1)CCCCc1c(cc3c(c1C(=O)NCCS(=O)(=O)O)CCO3)OC2=O [Example 36, 2-(((3-carbamimidamido-15-oxo-5,7,8,10,11,15-hexahydro-6H-12,14-dioxabenzo[5,6]cyclodeca[1,2-f]inden-9-yl)carbonyl)amino)ethane-sulfonic acid] | 94 |
| N=C(N)Nc1ccc2c(c1)CCCOc1cc(C(=O)N[C@@H](CC(=O)O)C(=O)O)ccc1OC2=O [Example 81, N-((10-carbamimidamido-13-oxo-6,7,8,13-tetrahydro-dibenzo[b,f] [1,4]dioxecin-3-yl)carbonyl)-L-aspartic acid] | 101 |
| N=C(N)Nc1ccc2c(c1)CCCOc1c(cccc1C(=O)N[C@@H](CS(=O)(=O)O)C(=O)O)OC2=O [Example 6, N-((10-Carbamimidamido-13-oxo-6,7,8,13-tetrahydrodibenzo[b,f][1,4]dioxecin-4-yl)carbonyl)-3-sulfo-L-alanine] | 101 |
| N=C(N)Nc1ccc2c(c1)CCCOc1c(cccc1C(=O)N[C@@H](Cc1ccccc1)C(=O)O)OC2=O [Example 87, N-((10-carbamimidamido-13-oxo-6,7,8,13-tetrahydro-dibenzo[b,f] [1,4]dioxecin-4-yl)carbonyl)-L-phenylalanine] | 101 |
| N=C(N)Nc1ccc2c(c1)CCCOc1c(cccc1C(=O)N(Cc1ccc(C(=O)O)cc1)[C@@H](CC(=O)O)C(=O)O)OC2=O [Example 143, N-((10-Carbamimidamido-13-oxo-6,7,8,13-tetrahydrodibenzo[b,f][1,4]dioxecin-4-yl)carbonyl)-N-(4-carboxybenzyl)-L-aspartic acid] | 100 |

| SMILES | inhibition at 3.3 µM [%] |
| --- | --- |
| N=C(N)Nc1ccc2c(c1)CCCOc1c(cccc1C(=O)O)OC2=O [Example 29, 10-carbamimidamido-13-oxo-6,7,8,13-tetrahydro-dibenzo[b,f] [1,4]dioxecine-4-carboxylic acid] | 101 |
| N=C(N)Nc1ccc2c(c1)CCCOc1c(cccc1C(=O)N(CC(=O)O)Cc1cc(C(=O)O)cc(C(=O)O)c1)OC2=O [Example 146, 5-((((10-carbamimidamido-13-oxo-6,7,8,13-tetrahydro-dibenzo[b,f] [1,4]dioxecin-4-yl)carbonyl)-(carboxy-methyl)-amino)methyl) isophthalic acid] | 102 |
| N=C(N)Nc1ccc2c(c1)CCCOc1c(cccc1C(=O)N(CC(=O)O)Cc1ccccc1C(=O)O)OC2=O [Example 127] | 100 |
| N=C(N)Nc1ccc2c(c1)CCCOc1c(CCC(=O)O)cccc1OC2=O [Example 91, 3-(10-Carbamimidamido-13-oxo-6,7,8,13-tetrahydrodibenzo[b,f][1,4]dioxecin-4-yl)propanoic acid trifluoroacetate] | 102 |
| COC(=O)CN(C(=O)c1cccc2c1OCCCc1cc(NC(=N)N)ccc1C(=O)O2)[C@@H](CC(=O)O)C(=O)O [Example 139, N-((10-carbamimidamido-13-oxo-6,7,8,13-tetrahydro-dibenzo[b,f] [1,4]dioxecin-4-yl)carbonyl)-N-(2-methoxy-2-oxoethyl)-L-aspartic acid] | 100 |
| N=C(N)Nc1ccc2c(c1)CCCOc1c(cccc1C(=O)N(CC(=O)O)[C@@H](CC(N)=O)C(=O)O)OC2=O [Example 65, N^2-((10-Carbamimidamido-13-oxo-6,7,8,13-tetrahydrodibenzo[b,f][1,4]dioxecin-4-yl)carbonyl)-N^2-(carboxymethyl)-L-asparagine] | 100 |
| N=C(N)Nc1ccc2c(c1)CCCOc1c(cccc1C(=O)N(Cc1ccc(C(=O)O)cc1)C(CC(=O)O)CC(=O)O)OC2=O [Example 147, 3-(((10-carbamimidamido-13-oxo-6,7,8,13-tetrahydro-dibenzo[b,f] [1,4]dioxecin-4-yl)carbonyl)(4-carboxybenzyl)amino)penta-nedioic acid] | 100 |
| C[C@@H]1CCc2cc(NC(=N)N)ccc2C(=O)Oc2cccc(C(=O)N[C@@H](CC(=O)O)C(=O)O)c2C1 [Example 20, N-((3-carbamimidamido-7-methyl-14-oxo-6,7,8,14-tetrahydro-6H-dibenzo[b,h]oxecin-9-yl)carbonyl)-L-aspartic acid] | 102 |
| N=C(N)Nc1ccc2c(c1)COc1c(cccc1C(=O)N[C@@H](CC(=O)O)C(=O)O)OC2=O [Example 19, N-((9-Carbamimidamido-6-oxo-6,11-dihydrodibenzo[b,f][1,4]dioxocin-1-yl)carbonyl)-L-aspartic acid trifluoroacetate] | 99 |
| N=C(N)Nc1ccc2c(c1)CCCCCc1c(cccc1C(=O)N[C@@H](CC(=O)O)C(=O)O)OC2=O [Example 76, N-((3-Carbamimidamido-15-oxo-5,6,7,8,9,15-hexahydrodibenzo[b,i]hexacycloundecin-10-yl)carbonyl)-L-aspartic acid] | 101 |
| N=C(N)Nc1ccc2c(c1)CCCCc1c(cc3c(c1C(=O)N[C@@H](CC(=O)O)C(=O)O)CCO3)OC2=O [Example 40, N-((3-Carbamimidamido-15-oxo-5,7,8,10,11,15-hexahydro-6H-12,14-dioxabenzo[5,6]cyclodeca[1,2-f]inden-9-yl)carbonyl)-L-aspartic acid] | 100 |
| N=C(N)c1ccc2c(c1)CCCCc1c(C(=O)N[C@@H](CC(=O)O)C(=O)O)cccc1C(=O)O2 [Example 98, N-((10-carbamimidoyl-14-oxo-5,7,8,14-tetrahydro-6H-dibenzo[b,h]oxecin-4-yl)carbonyl)-L-aspartic acid] | 95 |
| N=C(N)Nc1ccc2c(c1)CCc1ccc(CCC(=O)N[C@@H](CC(=O)O)C(=O)O)cc1OC2=O [Example 55, N-(3-(9-carbamimidamido-6-oxo-11,12-dihydro-6H-dibenzo[b,f]oxocin-3-yl)propanoyl)-L-aspartic acid] | 98 |
| N=C(N)Nc1ccc2c(c1)CCc1nc(CCC(=O)N[C@@H](CC(=O)O)C(=O)O)ccc1OC2=O [Example 48, N-(3-(9-Carbamimidamido-6-oxo-11,12-dihydro-6H-[2]benzoxocino[4,3-b]pyridin-2-yl)propanoyl)-L-aspartic acid trifluoroacetate] | 42 |
| N=C(N)Nc1ccc2c(c1)CCOc1c(cccc1C(=O)NCCS(=O)(=O)O)OC2=O [Example 15, 2-(((9-carbamimidamido-6-oxo-11,12-dihydro-6H-dibenzo[b,f][1,4]dioxonin-1-yl)carbonyl)amino) ethanesulfonic acid] | 101 |
